One series in a line: half-life in rats. The note with it: rat, in vivo, read-out: half-life (T1/2) (converted). An excerpt: (§1) The half-life (T1/2) of Medica compounds in humans differs considerably from their half-life in model animals. […] This difference in half-life could not be expected, and is of considerable significance when designing a new treatment protocol for humans.
The nature of a further series: half-life in dogs. The note with it: dog, in vivo, read-out: half-life (T1/2) (converted).
Text: as §1

Another series can be described thus: half-life in humans. The format is in vivo. The note with it: human, in vivo, read-out: half-life (T1/2) (converted).
Text: as §1

Series [1] has as its system fully differentiated 3T3L1 adipocytes. Nature of the series: glucose uptake in 3T3L1 adipocytes. The format is cell-based. The note with it: insulin as positive control. The protocol:
(§2) The compound 2,2,15,15-tetramethylhexadecane-1,16-dioic acid (also designated M16αα), and also the compounds […] (M18αα) and 2,2,19,19-tetramethyl-[…]-1,20-dioic acid (M20αα), were tested for their effect on glucose uptake and production, and the expression of glucose- and lipid-related genes in in vitro models. […] Inhibition of glucose production was tested in HepG2 human liver cells.

For another series, the system named is HepG2 human liver cells. Nature of the series: inhibition of glucose production in HepG2 cells. The format is cell-based. The protocol:
as §2

For series [2], the system named is cultured human HepG2 liver cells. Nature of the series: inhibition of lipoprotein production in HepG2 cells. In kind it is cell-based.
Series [3] relates to genes that control liver gluconeogenesis and lipid synthesis. As to the kind of experiment: expression of glucose- and lipid-related genes in in vitro models. The format is cell-based. The protocol: as §2
Series [4] concerns C57BL/KsJ (db/db) Spontaneous T2D mice. Nature of the series: glucose lowering effect in db/db mice. The note with it: once daily oral 30 mg/kg. In kind it is in vivo. As for the experimental part: In addition, the glucose lowering effect of the above three compounds M16αα, M18αα and M20αα was tested in C57BL/KsJ (db/db) Spontaneous T2D mice, which serve as a model for T2D. These animals are characterized by hyperphagia, obesity, hyperglycemia and insulin resistance. The mice were treated once daily by oral administration of the tested compound at 30 mg/kg.

Take `CC(C)(CCCCCCCCCCC(C)(C)CC(=O)O)CC(=O)O` [Medica16-ββ, 3,3,14,14-tetramethylhexadecanedioic acid, reference compound]: the half-life in the series “half-life in rats” is 2.7 ± 0.4 h; in the series “half-life in dogs”, 25.8 h; in the series “half-life in humans”, 31.5 ± 12.8 h.

Regarding `CC(C)(CCCCCCCCCCCCCCC(C)(C)C(=O)O)C(=O)O` [M18αα, 2,2,17,17-tetramethylocta-decane-1,18-dioic acid], in series [1], the glucose uptake entry is given as “increase glucose uptake”. Besides, the hepatic glucose production result in the series on HepG2 human liver cells was “significant or full inhibition”. The lipoprotein production result in series [2] is “significant or full inhibition”. Further, in series [3], the “expression of genes that control liver gluconeogenesis and lipid synthesis” value was “effective in inhibiting”. In series [4], the blood glucose levels result is listed as “significantly decrease”, the serum insulin levels result was “significantly decrease” and the serum triglyceride levels entry is given as “significantly decrease”.

`CC(C)(CCCCCCCCCCCCCCCCC(C)(C)C(=O)O)C(=O)O` [M20αα]: the glucose uptake result in series [1] is given as “increase glucose uptake”. Moreover, the hepatic glucose production result in the series on HepG2 human liver cells was “significant or full inhibition”. Further, the lipoprotein production result in series [2] is recorded as “significant or full inhibition”. In addition, the “expression of genes that control liver gluconeogenesis and lipid synthesis” value in series [3] is “effective in inhibiting”. Further, in series [4], the blood glucose levels entry is “significantly decrease”, the serum insulin levels entry is “significantly decrease” and the serum triglyceride levels entry is given as “significantly decrease”.

(Values after patent US11207285B2, “Diabetes treatment regimens using alpha, alpha-substituted long-chain amphipathic carboxylates” (SYNDROMEX LTD., priority 2016, dated 2021).)
